Experimental data published in ChEMBL document CHEMBL3297657, “Synthesis and antitumor activities of novel α-aminophosphonate derivatives containing an alizarin moiety” (Eur J Med Chem, 2014).
Activity calls are given as the source filed them. The rule behind the calls is not given here.

What was measured:
CNE = experiment: Cytotoxicity against human CNE cells after 48 hrs by MTT assay; assay type: functional, cell-based
MGC-803 = experiment: Cytotoxicity against human MGC803 cells after 48 hrs by MTT assay; assay type: functional, cell-based; details: MGC-803, 48 h
HUVEC = experiment: Cytotoxicity against HUVEC after 48 hrs by MTT assay; assay type: cell-based; details: Homo sapiens
NCI-H460 [1] = experiment: Induction of apoptosis in human NCI-H460 cells assessed as change in mitochondrial membrane potential after 24 hrs by JC-1 staining-based fluorescence microscopy relative to control; assay type: functional, cell-based
NCI-H460 [2] = experiment: Induction of apoptosis in human NCI-H460 cells assessed as karyopyknosis and chromatin condensation at 5 to 20 uM after 24 hrs by Hoechst 33258 staining-based fluorescence microscopy relative to control; assay type: functional, cell-based
NCI-H460 [3] = experiment: Induction of apoptosis in human NCI-H460 cells assessed as karyopyknosis and chromatin condensation after 24 hrs by Hoechst 33258 staining-based fluorescence microscopy relative to control; assay type: functional, cell-based
NCI-H460 [4] = experiment: Induction of apoptosis in human NCI-H460 cells assessed as early apoptotic cells at 8 uM after 24 hrs by Annexin V/propidium iodide staining-based flow cytometry (reference value: 6.8%); assay type: functional
NCI-H460 [5] = experiment: Induction of apoptosis in human NCI-H460 cells assessed as early apoptotic cells at 8 uM after 48 hrs by Annexin V/propidium iodide staining-based flow cytometry (reference value: 6.8%); assay type: functional
NCI-H460 [6] = experiment: Induction of apoptosis in human NCI-H460 cells assessed as early apoptotic cells at 10 uM after 24 hrs by Annexin V/propidium iodide staining-based flow cytometry (reference value: 6.8%); assay type: functional
NCI-H460 [7] = experiment: Induction of apoptosis in human NCI-H460 cells assessed as early apoptotic cells at 20 uM after 24 hrs by Annexin V/propidium iodide staining-based flow cytometry (reference value: 6.8%); assay type: functional
NCI-H460 [8] = experiment: Induction of apoptosis in human NCI-H460 cells assessed as late apoptotic cells at 8 uM after 48 hrs by Annexin V/propidium iodide staining-based flow cytometry (reference value: 14.1%); assay type: functional
NCI-H460 [9] = experiment: Induction of apoptosis in human NCI-H460 cells assessed as late apoptotic cells at 5 uM after 24 hrs by Annexin V/propidium iodide staining-based flow cytometry (reference value: 14.1%); assay type: functional
NCI-H460 [10] = experiment: Induction of apoptosis in human NCI-H460 cells assessed as late apoptotic cells at 20 uM after 24 hrs by Annexin V/propidium iodide staining-based flow cytometry (reference value: 14.1%); assay type: functional
NCI-H460 [11] = experiment: Induction of apoptosis in human NCI-H460 cells assessed as necrotic cells at 8 uM after 24 hrs by Annexin V/propidium iodide staining-based flow cytometry (reference value: 6.9%); assay type: functional
NCI-H460 [12] = experiment: Induction of apoptosis in human NCI-H460 cells assessed as necrotic cells at 8 uM after 48 hrs by Annexin V/propidium iodide staining-based flow cytometry (reference value: 6.9%); assay type: functional
NCI-H460 [13] = experiment: Induction of apoptosis in human NCI-H460 cells assessed as viable cells at 8 uM after 24 hrs by Annexin V/propidium iodide staining-based flow cytometry (reference value: 72.2%); assay type: functional; details: NCI-H460, 24 h, read-out: Activity
NCI-H460 [14] = experiment: Induction of apoptosis in human NCI-H460 cells assessed as viable cells at 5 uM after 24 hrs by Annexin V/propidium iodide staining-based flow cytometry (reference value: 72.2%); assay type: functional; details: NCI-H460, 24 h, read-out: Activity
NCI-H460 [15] = experiment: Induction of apoptosis in human NCI-H460 cells assessed as early apoptotic cells after 24 hrs by Annexin V/propidium iodide staining-based flow cytometry; assay type: functional, cell-based
NCI-H460 [16] = experiment: Induction of apoptosis in human NCI-H460 cells assessed as early apoptotic cells at 8 uM by Annexin V/propidium iodide staining-based flow cytometry; assay type: functional, cell-based; details: TDE = time-dependent effect
NCI-H460 [17] = experiment: Induction of apoptosis in human NCI-H460 cells assessed as late apoptotic cells after 24 hrs by Annexin V/propidium iodide staining-based flow cytometry; assay type: functional, cell-based
NCI-H460 [18] = experiment: Induction of apoptosis in human NCI-H460 cells assessed as late apoptotic cells at 8 uM by Annexin V/propidium iodide staining-based flow cytometry; assay type: functional, cell-based; details: TDE = time-dependent effect
NCI-H460 [19] = experiment: Induction of apoptosis in human NCI-H460 cells assessed as necrotic cells at 8 uM by Annexin V/propidium iodide staining-based flow cytometry; assay type: functional, cell-based; details: TDE = time-dependent effect
NCI-H460 [20] = experiment: Induction of apoptosis in human NCI-H460 cells assessed as viable cells at 8 uM by Annexin V/propidium iodide staining-based flow cytometry; assay type: functional, cell-based; details: TDE = time-dependent effect
NCI-H460 [21] = experiment: Cell cycle arrest in human NCI-H460 cells assessed as accumulation at G1 phase at 8 uM after 48 hrs by Rnase A/propidium iodide staining-based flow cytometry (reference value: 46.69%); assay type: functional
NCI-H460 [22] = experiment: Cell cycle arrest in human NCI-H460 cells assessed as accumulation at G1 phase at 10 uM after 48 hrs by Rnase A/propidium iodide staining-based flow cytometry (reference value: 46.69%); assay type: functional
NCI-H460 [23] = experiment: Cell cycle arrest in human NCI-H460 cells assessed as accumulation at S phase at 8 uM after 48 hrs by Rnase A/propidium iodide staining-based flow cytometry (reference value: 19.41%); assay type: functional
NCI-H460 [24] = experiment: Cell cycle arrest in human NCI-H460 cells assessed as accumulation at S phase at 20 uM after 48 hrs by Rnase A/propidium iodide staining-based flow cytometry (reference value: 19.41%); assay type: functional
NCI-H460 [25] = experiment: Cell cycle arrest in human NCI-H460 cells assessed as accumulation at G2 phase at 8 uM after 24 hrs by Rnase A/propidium iodide staining-based flow cytometry (reference value: 33.9%); assay type: functional
NCI-H460 [26] = experiment: Cell cycle arrest in human NCI-H460 cells assessed as accumulation at G2 phase at 8 uM after 48 hrs by Rnase A/propidium iodide staining-based flow cytometry (reference value: 33.9%); assay type: functional
NCI-H460 [27] = experiment: Cell cycle arrest in human NCI-H460 cells assessed as accumulation at G2 phase at 10 uM after 48 hrs by Rnase A/propidium iodide staining-based flow cytometry (reference value: 33.9%); assay type: functional
NCI-H460 [28] = experiment: Cell cycle arrest in human NCI-H460 cells assessed as accumulation at G2 phase at 20 uM after 48 hrs by Rnase A/propidium iodide staining-based flow cytometry (reference value: 33.9%); assay type: functional
NCI-H460 [29] = experiment: Induction of apoptosis in human NCI-H460 cells assessed as caspase-3 activation after 24 hrs by qRT-PCR analysis; assay type: functional, cell-based
NCI-H460 [30] = experiment: Induction of apoptosis in human NCI-H460 cells assessed as caspase-4 activation after 24 hrs by qRT-PCR analysis; assay type: functional, cell-based
NCI-H460 [31] = experiment: Induction of apoptosis in human NCI-H460 cells assessed as upregulation of CAMK1 mRNA expression after 24 hrs by qRT-PCR analysis; assay type: functional, cell-based
NCI-H460 [32] = experiment: Induction of apoptosis in human NCI-H460 cells assessed as upregulation of cytochrome C mRNA expression after 24 hrs by qRT-PCR analysis; assay type: functional, cell-based
NCI-H460 [33] = experiment: Induction of apoptosis in human NCI-H460 cells assessed as increase in intracellular calcium release at 5 to 20 uM after 24 hrs by Fluo-3/AM staining-based fluorescence microscopy; assay type: functional, cell-based
HCT-116 = experiment: cells; details: Homo sapiens, HCT-116, 48 h
Description: Cytotoxicity against human HCT116 cells after 48 hrs by MTT assay

A549 = experiment: cells; details: Homo sapiens, A549, 48 h
Description: Cytotoxicity against human A549 cells after 48 hrs by MTT assay

SMILES | IC50 (CNE) [µM] | IC50 (MGC-803) [µM] | IC50 (HUVEC) [µM] | Activity (NCI-H460 [1]) | Activity (NCI-H460 [2]) | Activity (NCI-H460 [3]) | Activity (NCI-H460 [4]) [%] | Activity (NCI-H460 [5]) [%] | Activity (NCI-H460 [6]) [%] | Activity (NCI-H460 [7]) [%] | Activity (NCI-H460 [8]) [%] | Activity (NCI-H460 [9]) [%] | Activity (NCI-H460 [10]) [%] | Activity (NCI-H460 [11]) [%] | Activity (NCI-H460 [12]) [%] | viability at 8 µM (NCI-H460 [13]) [%] | viability at 5 µM (NCI-H460 [14]) [%] | Activity (NCI-H460 [15]) | Activity (NCI-H460 [16]) | Activity (NCI-H460 [17]) | other results
CCOP(=O)(OCC)C(NC(=O)C(C)Oc1ccc2c(c1O)C(=O)c1ccccc1C2=O)c1cccc2ccccc12 (centres undefined) | > 50 | 3.77 | 40.5 | Dose-dependent effect | Active | Dose-dependent effect | 36.6 | 54.9 | 35.7 | 38.8 | 14.8 | 16.3 | 16.4 | 2.4 | 3.7 | 47.5 | 71.4 | Dose-dependent effect | tde | Dose-dependent effect | Activity (NCI-H460 [18]): tde; Activity (NCI-H460 [19]): tde; Activity (NCI-H460 [20]): tde; Activity (NCI-H460 [21]): 68.09%; Activity (NCI-H460 [22]): 59.86%; Activity (NCI-H460 [23]): 0.41%; Activity (NCI-H460 [24]): 17.06%; Activity (NCI-H460 [25]): 32.56%; Activity (NCI-H460 [26]): 31.5%; Activity (NCI-H460 [27]): 24.74%; Activity (NCI-H460 [28]): 21.34%; Activity (NCI-H460 [29]): Dose-dependent effect; Activity (NCI-H460 [30]): Dose-dependent effect; Activity (NCI-H460 [31]): Dose-dependent effect; Activity (NCI-H460 [32]): Dose-dependent effect; Activity (NCI-H460 [33]): Active; IC50 (HCT-116): 40 µM; IC50 (A549): 15.9 µM
CCOP(=O)(OCC)C(NC(=O)C(C)Oc1ccc2c(c1O)C(=O)c1ccccc1C2=O)c1ccccc1OC (centres undefined) | 34.2 | 10.1 | > 50 | Dose-dependent effect | Active | Dose-dependent effect | 38.9 | 50.2 | 32.4 | 34.7 | 18.2 | 8.6 | 30.7 | 2.5 | 3.2 | 47.5 | 62.1 | Dose-dependent effect | tde | Dose-dependent effect | Activity (NCI-H460 [18]): tde; Activity (NCI-H460 [19]): tde; Activity (NCI-H460 [20]): tde; Activity (NCI-H460 [21]): 68.16%; Activity (NCI-H460 [22]): 60.79%; Activity (NCI-H460 [23]): 8.87%; Activity (NCI-H460 [24]): 11.81%; Activity (NCI-H460 [25]): 21.99%; Activity (NCI-H460 [26]): 22.97%; Activity (NCI-H460 [27]): 29.38%; Activity (NCI-H460 [28]): 23.09%; Activity (NCI-H460 [29]): Dose-dependent effect; Activity (NCI-H460 [30]): Dose-dependent effect; Activity (NCI-H460 [31]): Dose-dependent effect; Activity (NCI-H460 [32]): Dose-dependent effect; Activity (NCI-H460 [33]): Active; IC50 (HCT-116): 10.5 µM; IC50 (A549): 12.3 µM
CCOP(=O)(OCC)C(NC(=O)C(C)Oc1ccc2c(c1O)C(=O)c1ccccc1C2=O)c1ccccc1F (centres undefined) | 30.2 | 18.8 | 21 | Dose-dependent effect | Active | Dose-dependent effect | 38.8 | 56.4 | 56.3 | 55.1 | 9.3 | 9.2 | 9.8 | 1.9 | 3.2 | 46.3 | 61.6 | Dose-dependent effect | tde | Dose-dependent effect | Activity (NCI-H460 [18]): tde; Activity (NCI-H460 [19]): tde; Activity (NCI-H460 [20]): tde; Activity (NCI-H460 [21]): 65.52%; Activity (NCI-H460 [22]): 65.81%; Activity (NCI-H460 [23]): 10.87%; Activity (NCI-H460 [24]): 11.25%; Activity (NCI-H460 [25]): 23.05%; Activity (NCI-H460 [26]): 23.61%; Activity (NCI-H460 [27]): 20.77%; Activity (NCI-H460 [28]): 20.06%; Activity (NCI-H460 [29]): Dose-dependent effect; Activity (NCI-H460 [30]): Dose-dependent effect; Activity (NCI-H460 [31]): Dose-dependent effect; Activity (NCI-H460 [32]): Dose-dependent effect; Activity (NCI-H460 [33]): Active; IC50 (HCT-116): 13.3 µM; IC50 (A549): 6.76 µM
